Test results taken from US7700832B2 (priority 2006, dated 2010).
Entries after “also recorded” stand apart in the source; their conditions may differ. Read-outs that look alike come from different tables or passages of the source.

What was measured:
Assay type in all cases: cell-based
[1] = test system: Diplodia maydis (DMA); conditions: polypeptide, standard plate assay, 6,000 spores per mL, ¼× potato dextrose broth, 28° C., 24 to 48 hours, scored with inverted microscope
[2] = test system: Fusarium verticillioides (FVE)
[3] = test system: Colletotrichum graminicola (CGR); conditions: polypeptide, standard plate assay, 4,000 spores per mL, ¼× Czapec-Dox V8, 28° C., 24 to 48 hours, scored with inverted microscope
[4] = test system: Fusarium graminearum (FGR); conditions: for antifungal activity against FGR: polypeptide, standard plate assay, 4,000 spores per mL, ¼× potato dextrose broth, 28° C., 24 to 48 hours, scored with inverted microscope

## SEQ ID NO:1: mature antifungal polypeptide LB-09812, 33 amino acids, from Penicillium glandicola fermentation broth; also expressed in E. coli and HPLC-purified (ALHNSCSHPRCFNHAHCLTYSHCHVCSSRKRCL; PEPTIDE (1)...(33) Predicted mature LB-09812 peptide; listed as Penicillium glandicola)
[1]
  antifungal activity against DMA: display antifungal activity
[1]; listed as SEQ ID NO: 1
  antifungal activity against DMA: exhibited antifungal activity
[2]
  antifungal activity against FVE: exhibited antifungal activity; also recorded: display antifungal activity
[3]
  antifungal activity against CGR: display antifungal activity
[3]; listed as SEQ ID NO: 1
  antifungal activity against CGR: exhibited antifungal activity
[4]; dried HPLC fractions, 4,000 spores/mL in ¼× potato dextrose broth, 27° C. for 24 hours
  antifungal activity against FGR (HPLC fraction screen): found to have activity
[4]
  antifungal activity against FGR: display antifungal activity
[4]; listed as SEQ ID NO: 1
  antifungal activity against FGR: exhibited antifungal activity

## SEQ ID NO:3: mature antifungal polypeptide LB-12922 isolated from Penicillium citreonigrum fermentation broth (LSCYPSCMQNYCSHPRCFLHATCLSYSHCHVCGTRKVCL; PEPTIDE (1)...(39) Predicted mature LB-12922 peptide; listed as Penicillium citreonigrum)
[1]
  antifungal activity against DMA: display antifungal activity
[2]
  antifungal activity against FVE: display antifungal activity
  antifungal activity against FVE (HPLC fraction screen): found to have activity
[3]
  antifungal activity against CGR: display antifungal activity
[4]
  antifungal activity against FGR: display antifungal activity
